24 molecules from article PMC10688702, “The indole motif is essential for the antitrypanosomal activity of N^5-substituted paullones” (PLOS ONE, 2023) can be followed below.

Structures are written as SMILES. Where a name gives a salt, the structure may show the parent alone.

In test [1] the target is trypanothione synthetase of L. infantum (LiTryS) (Leishmania infantum, UniProt A4I2Z3). Kind of test: TryS activity screening assay on recombinant LiTryS. The format is biochemical. The conditions noted are these: read-out: LiTryS activity [% at 30 μM]. On the procedure: TryS from different trypanosomatids was produced in recombinant form with an N-terminal His-tag. The constructs pET-15b TbTryS and pET-28c(+)LiTryS were used to express TryS of T. b. brucei 427 (MITat1.4, GenBank accession protein id CAC87573.1), and L. infantum JPCM5 (GenBank accession protein id CAM69145.1). E. coli strain BL21 (DE3) served as the expression host. For TbTryS, the cells were cultured in a medium based in Terrific Broth and induction with isopropyl 1-thio-β-D-galactopyranoside (IPTG), while for LiTryS, the cells were cultured in ZYM-5052 auto-induction medium. For a detailed description of the expression, see Benítez et al.. The purification was performed by immobilised metal affinity chromatography in a HisTrap Fast Flow column (GE Healthcare) followed by size exclusion chromatography. […] The fractions containing recombinant TryS with ≥95% purity were pooled and concentrated to >10 mg protein/mL using a 10 kDa cut-off Amicon filter (Millipore, Billerica, CA). Glycerol was added at a final concentration of 40% (v/v). The samples were stored at -80°C. Enzyme purity and activity were assessed by SDS-PAGE (12%) under reducing conditions and by the end-point TryS assay (see TryS activity screening assay), respectively. Protein concentration was determined using the bicinchoninic acid assay with bovine serum albumin as standard. The protocols yielded 25–30 mg TbTryS or LiTryS per litre of culture medium and homogeneous specific activity.
trypanothione synthetase of L. infantum (LiTryS), sequence (A4I2Z3 entry or part of it): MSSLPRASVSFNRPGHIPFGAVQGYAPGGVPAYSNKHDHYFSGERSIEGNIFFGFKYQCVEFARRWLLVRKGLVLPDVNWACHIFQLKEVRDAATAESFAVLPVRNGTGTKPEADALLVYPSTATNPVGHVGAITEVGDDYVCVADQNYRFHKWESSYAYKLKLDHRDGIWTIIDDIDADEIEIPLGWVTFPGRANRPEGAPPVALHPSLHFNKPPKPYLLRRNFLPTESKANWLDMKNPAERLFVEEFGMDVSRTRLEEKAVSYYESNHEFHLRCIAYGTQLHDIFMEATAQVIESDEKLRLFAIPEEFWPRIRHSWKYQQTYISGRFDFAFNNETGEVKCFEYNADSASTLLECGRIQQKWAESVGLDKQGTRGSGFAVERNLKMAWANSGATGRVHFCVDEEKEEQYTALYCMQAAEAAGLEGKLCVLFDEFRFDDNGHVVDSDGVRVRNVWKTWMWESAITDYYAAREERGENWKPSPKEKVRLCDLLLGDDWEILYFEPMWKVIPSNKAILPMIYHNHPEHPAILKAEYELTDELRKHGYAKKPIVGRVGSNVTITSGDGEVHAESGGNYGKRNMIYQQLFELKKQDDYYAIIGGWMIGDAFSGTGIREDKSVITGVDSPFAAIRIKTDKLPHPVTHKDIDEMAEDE
For all TryS, ATP was used at 150 μM because of a high background signal at higher concentrations and Spd fixed at 2 mM, in agreement with the intracellular levels calculated from data reported in the literature for trypanosomatids. GSH was adjusted to 0.05 and 0.25 mM for TbTryS and LiTryS, respectively, to avoid substrate inhibition or to approach physiological concentrations. […] Microtiter plate wells were loaded with 5 μL of the test compound, DMSO (reaction control) or a TryS specific inhibitor (inhibition control) and 40 μL of MM solution. The reactions were then started by adding 5 μL of TryS (2 and 3*10^−5 μmol*min^-1*mL^-1 for LiTryS and TbTryS, respectively) and stopped after 15 min with 200 μL BIOMOL® GREEN reagent (Enzo Life Sciences). The compounds used as inhibition control were added at concentrations that inhibited 50% TryS activity: 30 μM and 150 nM MOL2008 for TbTryS and LiTryS, respectively. Blanks were prepared for each condition by adding 5 μL of screening reaction buffer instead of the enzyme. The TryS activity is calculated as follows: TrySactivity%=A650nmCi-A650nmCiB/A650nmE-A650nmEB*100%
A650 nm Ci is the mean absorbance at 650 nm for the reaction test with compound I (Ci), A650 nm CiB is the mean absorbance at 650 nm for the blank control with compound I (CiB), A650 nm E is the mean absorbance at 650 nm for the reaction control with DMSO (E) and A650 nm EB is the mean absorbance at 650 nm for the blank control with DMSO (EB). The errors were expressed as 2 standard deviations (SD), SD estimated as σ^n−1.

The subject of test [2] is L. infantum amastigotes (intracellular, in J774.A1 macrophages). In words: Viability assay for L. infantum amastigotes. The format is cell-based. Particulars: Leishmania infantum, J774.A1, 24 h, read-out: L. infantum amastigote viability [% at 20 μM]. On the procedure:
Viability assay for L. infantum amastigotes. L. infantum promastigotes from the reference strain MHOM/MA/67/ITMAP263, stably transfected with a vector encoding a red-shifted luciferase gene (RE9HLUC; Branchini et al.; Benítez et al.) were grown in fresh complete RPMI medium (RPMI basic medium containing 25 mM HEPES, 10% v/v iFBS, 100 U/mL penicillin, 100 μg/mL streptomycin and 15 μg/mL hygromycin B) at 28°C in sealed culture flasks. Metacyclic promastigotes were obtained by a negative selection procedure using peanut agglutinin and used to infect murine macrophages (cell line J774.A1) at a 1:10 ratio for macrophages (5×10^6 cells): parasites (5×10^7 cells). 200 μL of this suspension was added per well to a 96-well culture microplate, which was then incubated at 37°C for 24 h in a 5% CO2/95% air atmosphere incubator. […] The culture microplate was incubated in the CO2 incubator for additional 24 h. Next, the supernatant was removed and the microplate wells were washed with pre-warmed PBS (200 μL). […] All conditions were tested in triplicates and the percentage amastigote viability was calculated as described for infective T. b. brucei, with errors expressed as one SD, estimated as σ^n-1.
A macrophage cell density correction factor based on the incorporation of propidium iodide was calculated and applied to normalise amastigote viability related to host cell density in the well. For a detailed explanation of the protocol, see Benítez et al..

`CN(CCNC(=O)CN1C(=O)CCCc2ccccc21)C(=O)OC(C)(C)C` [2e, tert-Butyl methyl-{2-[2-(2-oxo-2,3,4,5-tetrahydro-1H-benzo[b]azepin-1-yl)acetamido]ethyl}carbamate]: the activity at 30 µM in test [1] is 92.5 ± 37.2%.

On to `CCN(CC)C(=O)CN1C(=O)CCCc2ccccc21` [2k, N,N-Diethyl-2-(2-oxo-2,3,4,5-tetrahydro-1H-benzo[b]azepin-1-yl)acetamide], for which the activity at 30 µM in test [1] was found to be 92.9 ± 6.4%.

In the case of `CC(C)(C)OC(=O)NCCCCNC(=O)CN1C(=O)CCCc2ccccc21` [2f, tert-Butyl {4-[2-(2-oxo-2,3,4,5-tetrahydro-1H-benzo[b]azepin-1-yl)acetamido]butyl}carbamate], the activity at 30 µM in test [1] is 83.6 ± 8.7%.

As for `NCCNC(=O)CN1C(=O)CCCc2ccccc21` [2p, N-(2-Aminoethyl)-2-(2-oxo-2,3,4,5-tetrahydro-1H-benzo[b]azepin-1-yl)acetamide hydrochloride], the activity at 30 µM in test [1] was determined as 82.4 ± 9.5%.

Turning to `CO/N=C1\CCC(=O)N(CC(=O)O)c2ccccc21` [compound 22, (E/Z)-2-(5-(Methoxyimino)-2-oxo-2,3,4,5-tetrahydro-1H-benzo[b]azepin-1-yl)acetic acid], in test [1], the activity at 30 µM came to 96.7 ± 5.2%.

A word on the viability: it is a per cent measure of how many cells are alive, often set against a control. Regarding `O=C(CN1C(=O)CCCc2ccccc21)NCCN1CCOCC1` [2t, N-(2-Morpholinoethyl)-2-(2-oxo-2,3,4,5-tetrahydro-1H-benzo[b]azepin-1-yl)acetamide hydrochloride], the activity at 30 µM in test [1] is 91 ± 3.9%. Further, the viability at 20 µM in test [2] was 71.2 ± 1.5%.

In the case of `O=C(O)CN1C(=O)Cc2ccccc2-c2ccccc21` [compound 19, 2-(6-Oxo-6,7-dihydro-5H-dibenzo[b,d]azepin-5-yl)acetic acid], the activity at 30 µM in test [1] turned out to be 97.8 ± 6.1%.

`CC(C)(C)OC(=O)N1CCN(CCNC(=O)CN2C(=O)C(C)(C)CCc3ccccc32)CC1` [3b, tert-Butyl 4-{2-[2-(3,3-dimethyl-2-oxo-2,3,4,5-tetrahydro-1H-benzo[b]azepin-1-yl)acetamido]ethyl}piperazine-1-carboxylate]: the activity at 30 µM in test [1] was determined as 107 ± 12.6%. The viability at 20 µM in test [2] turned out to be 94.8 ± 2.5%.

`CC(C)(C)OC(=O)N1CCN(C(=O)CN2C(=O)CCCc3ccccc32)CC1` [2d, tert-Butyl 4-[2-(2-oxo-2,3,4,5-tetrahydro-1H-benzo[b]azepin-1-yl)acetyl]piperazine-1-carboxylate]: in test [1], the activity at 30 µM amounted to 108 ± 14.6%.

As to `O=C(CN1C(=O)CCCc2ccccc21)N1CCCCC1` [2i, 1-[2-Oxo-2-(piperidin-1-yl)ethyl]-1,3,4,5-tetrahydro-2H-benzo[b]azepin-2-one], the activity at 30 µM in test [1] stood at 89.4 ± 4.6%.

Regarding `CN1CCN(CCNC(=O)CN2C(=O)CCCc3ccccc32)CC1` [2u, N-[2-(4-Methylpiperazin-1-yl)ethyl]-2-(2-oxo-2,3,4,5-tetrahydro-1H-benzo[b]azepin-1-yl)acetamide dihydrochloride], the activity at 30 µM in test [1] was found to be 106 ± 9.8%. Besides, the viability at 20 µM in test [2] amounted to 85 ± 10.6%.

On to `CO/N=C1\CCC(=O)Nc2ccccc21` [compound 20, (E)-5-methoxyimino-1,3,4,5-tetrahydro-2H-benzo[b]azepin-2-one], for which, in test [1], the activity at 30 µM is 102 ± 2.4%.

As for `CO/N=C1\CCC(=O)N(CC(=O)OC(C)(C)C)c2ccccc21` [compound 21, tert-Butyl (E/Z)-2-(5-(methoxyimino)-2-oxo-2,3,4,5-tetrahydro-1H-benzo[b]azepin-1-yl)acetate], the activity at 30 µM in test [1] worked out at 92.4 ± 10.3%.

On to `O=C(CN1C(=O)CCCc2ccccc21)N1CCOCC1` [2h, 1-(2-Morpholino-2-oxoethyl)-1,3,4,5-tetrahydro-2H-benzo[b]azepin-2-one], for which the activity at 30 µM in test [1] amounted to 92.7 ± 9.2%.

For `CN(CCNC(=O)CN1C(=O)C(C)(C)CCc2ccccc21)C(=O)OC(C)(C)C` [3c, tert-Butyl {2-[2-(3,3-dimethyl-2-oxo-2,3,4,5-tetrahydro-1H-benzo[b]azepin-1-yl)acetamido]ethyl}(methyl)carbamate], in test [1], the activity at 30 µM stood at 104 ± 7.1%.

Take `CN(CCNC(=O)CN1C(=O)Cc2ccccc2-c2ccccc21)C(=O)OC(C)(C)C` [4c, tert-Butyl N-methyl-{2-[2-(6-oxo-6,7-dihydro-5H-dibenzo[b,d]azepin-5-yl)acetamido]ethyl}carbamate]: in test [1], the activity at 30 µM is 87.6 ± 4.6%.

Turning to `CC(C)(C)OC(=O)N1CCN(CCNC(=O)CN2C(=O)CCCc3ccccc32)CC1` [2b, tert-Butyl 4-{2-[2-(2-oxo-2,3,4,5-tetrahydro-1H-benzo[b]azepin-1-yl)acetamido]ethyl}piperazine-1-carboxylate], the activity at 30 µM in test [1] is 91.4 ± 3.1%. In addition, the viability at 20 µM in test [2] stood at 89.5 ± 9.9%.

Regarding `NCCCCNC(=O)CN1C(=O)CCCc2ccccc21` [2s, N-(4-Aminobutyl)-2-(2-oxo-2,3,4,5-tetrahydro-1H-benzo[b]azepin-1-yl)acetamide hydrochloride], the activity at 30 µM in test [1] turned out to be 104 ± 5.3%.

In the case of `CO/N=C1\CCC(=O)N(CC(=O)NCCN2CCN(C(=O)OC(C)(C)C)CC2)c2ccccc21` [5b, tert-Butyl (E/Z)-4-(2-{2-[5-(methoxyimino)-2-oxo-2,3,4,5-tetrahydro-1H-benzo[b]azepin-1-yl]acetamido}ethyl)piperazine-1-carboxylate], the activity at 30 µM in test [1] was 97.8 ± 13.3%. In addition, in test [2], the viability at 20 µM was determined as 93 ± 9.3%.

As to `CNCCNC(=O)CN1C(=O)CCCc2ccccc21` [2r, N-[2-(Methylamino)ethyl]-2-(2-oxo-2,3,4,5-tetrahydro-1H-benzo[b]azepin-1-yl)acetamide hydrochloride], the activity at 30 µM in test [1] was determined as 88.9 ± 10.4%.

With `CC(C)(C)OC(=O)NC1CCN(C(=O)CN2C(=O)CCCc3ccccc32)CC1` [2g, tert-Butyl {1-[2-(2-oxo-2,3,4,5-tetrahydro-1H-benzo[b]azepin-1-yl)acetyl]piperidine-4-yl}carbamate], in test [1], the activity at 30 µM came out at 93.3 ± 6.1%.

As to `CC(C)(C)OC(=O)NCCNC(=O)CN1C(=O)CCCc2ccccc21` [2c, tert-Butyl {2-[2-(2-oxo-2,3,4,5-tetrahydro-1H-benzo[b]azepin-1-yl)acetamido]ethyl}carbamate], the activity at 30 µM in test [1] was 96.7 ± 7.5%.

As to `CN1CCN(C(=O)CN2C(=O)CCCc3ccccc32)CC1` [2v, 1-[2-(4-Methylpiperazin-1-yl)-2-oxoethyl]-1,3,4,5-tetrahydro-2H-benzo[b]azepin-2-one hydrochloride], the activity at 30 µM in test [1] was 98.2 ± 13.7%. Besides, the viability at 20 µM in test [2] was determined as 72.4 ± 0.3%.

Regarding `CNCCNC(=O)CN1C(=O)C(C)(C)CCc2ccccc21` [3e, 2-(3,3-Dimethyl-2-oxo-2,3,4,5-tetrahydro-1H-benzo[b]azepin-1-yl)-N-[2-(methylamino)ethyl]acetamide hydrochloride], in test [1], the activity at 30 µM stood at 99.8 ± 7.1%.
